Experimental data published in US12649735B2 (HAIHE BIOPHARMA CO., LTD., priority 2019, dated 2026).

Assays:
[1] = biological target: T1, bromodomain protein BRD4 BD2 (Homo sapiens, UniProt O60885); assay: HTRF in vitro assay, inhibitory activity against BRD4 BD2; format: binding; details: BRD4(2) 30 nM in final system
T1 construct: The proteins BRD4 BD1/BD2 used in the experiment were purchased from Active Motif Company (Cat. No. 31380/31446); purchased Active Motif 31446
Protocol: (§1) The inhibitory activity of the compound against BRD4 BD1 was determined by using Homogeneous Time-Resolved Fluorescence (HTRF).
(§2) The proteins BRD4 BD1/BD2 used in the experiment were purchased from Active Motif Company (Cat. No. 31380/31446); Streptavidin XL-665 (#610SAXLA) and EPIgeneous Binding Domain Kit A (#62BDAPEG) were purchased from Cisbio Bioassays Company, [Lys(5,8,12,16)Ac]H4(1-21)-biotin (#64989), and [Lys(5,8,12,16)Ac]H4(1-25) were products of AnaSpec company; OTX015 and ABBV-075 were purchased from SelleckChem. 384 Well ProxiPlate (#6008280) was purchased from PerkinElmer. The multifunctional microplate reader used for the experimental was a product of PerkinElmer, model: Envision 2104. The experimental water was Millipore-Q pure water.
(§3) 10 mM of stock solution of compound in DMSO was diluted to 1 mM with DMSO and stored, and then diluted 10 times with Binding Domain dilution buffer (purchased from Cisbio Bioassays) for use (the concentration of DMSO in the final system was […]), 1:5 gradient dilution, a total of 5 concentrations.
(§4) 4. Test Method: 1 Batch, 2 Duplicate Wells
(§5) • 1) 5 μL of test compound was transferred to 45 μL of Binding Domain dilution buffer. • 2) 2 μL of 10× compound (4 μL Binding Domain dilution buffer: positive control; 6 μL enzyme buffer (purchased from Cisbio Bioassays): negative control) was transferred to the reaction plate. • 3) 4 μL of 5×BRD4(1) or BRD4(2) (30 nM in final system) was added to the reaction plate. • 4) 4 μL of 5×[Lys(5,8,12,16)Ac]H4(1-21)-biotin was added to the reaction plate, and the plate was covered with a film, and incubated at 37° C. for 30 min. • 5) A detection mixture of SA-XL665 (2×) and anti-H3K9me0-Eu(K) (2×) was prepared in detection buffer (purchased from Cisbio Bioassays). • 6) 10 μL of detection mixture (2×) was added to each well, and incubated for 3 h at room temperature, and the mp value was read using a multi-plate reader Envision. The parameters were set as follows.

[2] = biological target: T2, bromodomain protein BRD4 BD1 (Homo sapiens, UniProt O60885); assay: HTRF in vitro assay, inhibitory activity against BRD4 BD1; format: binding; details: BRD4(1) 30 nM in final system
T2 construct: The proteins BRD4 BD1/BD2 used in the experiment were purchased from Active Motif Company (Cat. No. 31380/31446); purchased Active Motif 31380
Protocol: In this example, the half inhibitory activity (IC50) of the compounds of the present invention against the bromodomain protein BRD4 BD1 was determined.
as §1, §2, §3, §4, §5

IC50 [1]	IC50 [2]	Molecule
10 to 100 nM	100 to 1000 nM	4-(methoxy(phenyl)methyl)-6-methyl-2-(1-(oxetan-3-yl)-1H-pyrazol-4-yl)-1-tolyl-1,6-dihydro-7H-pyrrolo[2,3-c]pyridin-7-one [Compound A70]
10 to 100 nM	100 to 1000 nM	4-diphenylmethyl-N-ethylamino-6-methyl-7-oxo-6,7-dihydro-1H-pyrrolo[2,3-c]pyridin-2-carboxamide [Compound A29]
≤ 10 nM	100 to 1000 nM	6-methyl-7-carbonyl-4-(1-phenylethyl)-N-(1H-pyrazol-4-yl)-6,7-dihydro-1H-pyrrolo[2,3]pyridin-2-carboxamide [Compound A7]
≤ 10 nM	100 to 1000 nM	6-methyl-7-carbonyl-4-(1-phenylethyl)-N-(tetrahydro-2H-pyran-4-yl)-6,7-dihydro-1H-pyrrolo[2,3-c]pyridin-2-carboxamide [Compound A6]
10 to 100 nM	100 to 1000 nM	Cn1cc(Cc2ccccc2)c2c[nH]cc2c1=O [Compound A1]
10 to 100 nM	100 to 1000 nM	Cn1cc2c(Cc3ccccc3)cn(C)c(=O)c2c1 [Compound A2]
10 to 100 nM	100 to 1000 nM	CCNC(=O)n1cc2c(Cc3ccccc3)cn(C)c(=O)c2c1 [Compound A3, 7-benzyl-N-ethyl-5-methyl-4-oxo-4,5-dihydro-2H-pyrrolo[3,4-c]pyridin-2-carboxamide]
10 to 100 nM	100 to 1000 nM	CCNC(=O)n1cc2c(C(OC)c3ccccc3)cn(C)c(=O)c2c1 (centres unmarked) [Compound A4, N-ethyl-7-(methoxy(phenyl)methyl)-5-methyl-4-oxo-4,5-dihydro-2H-pyrrolo[3,4-c]pyridin-2-carboxamide]
≤ 10 nM	100 to 1000 nM	CCNC(=O)c1cc2c(C(C)c3ccccc3)cn(C)c(=O)c2[nH]1 (centres unmarked) [Compound A5, N-ethyl-6-methyl-7-oxo-4-(1-phenethyl)-6,7-dihydro-1H-pyrrolo[2,3-c]pyridin-2-carboxamide]
≤ 10 nM	100 to 1000 nM	CC(c1ccccc1)c1cn(C)c(=O)c2[nH]c(C(=O)NC3CC3)cc12 (centres unmarked) [Compound A8, N-cyclopropyl-6-methyl-7-oxo-4-(1-phenethyl)-6,7-dihydro-1H-pyrrolo[2,3-c]pyridin-2-carboxamide]
10 to 100 nM	100 to 1000 nM	Cn1cc(C(CCO)c2ccccn2)c2cc(C(=O)NC3CC3)[nH]c2c1=O (centres unmarked) [Compound A9, N-cyclopropyl-4-(3-hydroxy-1-(pyridin-2-yl)propyl)-6-methyl-7-oxo-6,7-dihydro-1H-pyrrolo[2,3-c]pyridin-2-carboxamide]
10 to 100 nM	100 to 1000 nM	CCNC(=O)c1cc2c(Cc3ccccc3)cn(C)c(=O)c2[nH]1 [Compound A10, 4-benzyl-N-ethylamino-6-methyl-7-oxo-6,7-dihydro-1H-pyrrolo[2,3-c]pyridin-2-carboxamide]
≤ 10 nM	100 to 1000 nM	CCNC(=O)c1cc2c(C(C)c3cccnc3)cn(C)c(=O)c2[nH]1 (centres unmarked) [Compound A11, N-ethyl-6-methyl-7-oxo-4-(1-(pyridin-3-yl)ethyl)-6,7-dihydro-1H-pyrrolo[2,3-c]pyridin-2-carboxamide]
≤ 10 nM	100 to 1000 nM	CC(c1ccccc1)c1cn(C)c(=O)c2[nH]c(C(=O)Nc3cnn(C)c3)cc12 (centres unmarked) [Compound A12, 6-methyl-N-(1-methyl-1H-pyrazol-4-yl)-7-oxo-4-(1-phenethyl)-6,7-dihydro-1H-pyrrolo[2,3-c]pyridin-2-carboxamide]
≤ 10 nM	100 to 1000 nM	CC(c1ccc2ccccc2c1)c1cn(C)c(=O)c2[nH]c(C(=O)Nc3cnn(C)c3)cc12 (centres unmarked) [Compound A13]
≤ 10 nM	100 to 1000 nM	CC(c1ccccc1)c1cn(C)c(=O)c2[nH]c(-c3cn[nH]c3)cc12 (centres unmarked) [Compound A15, 6-methyl-4-(1-phenethyl)-2-(1H-pyrazol-4-yl)-1,6-dihydro-7H-pyrrolo[2,3-c]pyridin-7-one]

IC50 [1]	IC50 [2]	Molecule
10 to 100 nM	100 to 1000 nM	CC(c1ccccc1)c1cn(C)c(=O)c2[nH]c(-c3ccnc(C(F)(F)F)c3)cc12 (centres unmarked) [Compound A16, 6-methyl-4-(1-phenethyl)-2-(2-(trifluoromethyl)pyridin-4-yl)-1,6-dihydro-7H-pyrrolo[2,3-c]pyridin-7-one]
≤ 10 nM	100 to 1000 nM	CC(c1ccccc1)c1cn(C)c(=O)c2[nH]c(-c3cnn(C4COC4)c3)cc12 (centres unmarked) [Compound A17, 6-methyl-2-(1-(oxetan-3-yl)-1H-pyrazol-4-yl)-4-(1-phenethyl)-1,6-dihydro-7H-pyrrolo[2,3-c]pyridin-7-one]
≤ 10 nM	100 to 1000 nM	CC(c1ccccc1)c1cn(C)c(=O)c2[nH]c(-c3cnn(C)c3)cc12 (centres unmarked) [Compound A18, 6-methyl-2-(1-methyl-1H-pyrazol-4-yl)-4-(1-phenethyl)-1,6-dihydro-7H-pyrrolo[2,3-c]pyridin-7-one]
≤ 10 nM	100 to 1000 nM	CC(c1ccc(F)cc1)c1cn(C)c(=O)c2[nH]c(-c3cn[nH]c3)cc12 (centres unmarked) [Compound A19, 4-(1-(4-fluorophenyl)ethyl)-6-methyl-2-(1H-pyrazol-4-yl)-1,6-dihydro-7H-pyrrolo[2,3-c]pyridin-7-one]
10 to 100 nM	100 to 1000 nM	CC(c1ccccc1)c1cn(C)c(=O)c2[nH]c(-c3cnoc3)cc12 (centres unmarked) [Compound A20, 2-(isoxazol-4-yl)-6-methyl-4-(1-phenethyl)-1H-pyrrolo[2,3-c]pyridin-7(6H)-one]
10 to 100 nM	100 to 1000 nM	Cc1nocc1-c1cc2c(C(C)c3ccccc3)cn(C)c(=O)c2[nH]1 (centres unmarked) [Compound A21]
10 to 100 nM	100 to 1000 nM	CCNC(=O)c1cc2c(C(C)c3ccc4ccccc4c3)cn(C)c(=O)c2[nH]1 (centres unmarked) [Compound A22, N-ethyl-6-methyl-4-(1-(naphthalen-2-yl)ethyl)-7-oxo-6,7-dihydro-1H-pyrrolo[2,3-c]pyridin-2-carboxamide]
10 to 100 nM	100 to 1000 nM	CCNC(=O)c1cc2c(C(O)c3c(C)cccc3C)cn(C)c(=O)c2[nH]1 (centres unmarked) [Compound A23, (4-(2,6-dimethylphenyl)(hydroxy)methyl)-N-ethyl-6-methyl-7-oxo-6,7-dihydro-1H-pyrrolo[2,3-c]pyridin-2-carboxamide]
10 to 100 nM	100 to 1000 nM	CCNC(=O)c1cc2c(/C(=C/c3ccccc3)c3ccccc3)cn(C)c(=O)c2[nH]1 [Compound A24, (E)-4-(1,2-diphenylvinyl)-N-ethyl-6-methyl-7-oxo-6,7-dihydro-1H-pyrrolo[2,3-c]pyridin-2-carboxamide]
10 to 100 nM	100 to 1000 nM	CCNC(=O)c1cc2c(C(C)c3ccc4ccccc4c3)cn(C)c(=O)c2[nH]1 (centres unmarked) [Compound A25]
10 to 100 nM	100 to 1000 nM	CCNC(=O)c1cc2c(C(c3ccccc3)c3ccccc3O)cn(C)c(=O)c2[nH]1 (centres unmarked) [Compound A28]
≤ 10 nM	10 to 100 nM	CCNC(=O)c1cc2c(-c3nc4ncccc4n3-c3cc(C)c(F)c(C)c3)cn(C)c(=O)c2[nH]1 [Compound A30, N-ethyl-4-(1-(4-fluoro-3,5-dimethylphenyl)-1H-imidazo[4,5-b]pyridin-2-yl)-6-methyl-7-oxo-6,7-dihydro-1H-pyrrolo[2,3-c]pyridin-2-carboxamide]
≤ 10 nM	10 to 100 nM	CCNC(=O)c1cc2c(-c3nc4ncccc4n3-c3c(C)cccc3C)cn(C)c(=O)c2[nH]1 [Compound A31, 4-(1-(2,6-dimethylphenyl)-1H-imidazo[4,5-b]pyridin-2-yl)-N-ethyl-6-methyl-7-oxo-6,7-dihydro-1H-pyrrolo[2,3-c]pyridin-2-carboxamide]
≤ 10 nM	10 to 100 nM	CCNC(=O)c1cc2c(-c3cc(CO)c4ccccc4c3C3CC3)cn(C)c(=O)c2[nH]1 [Compound A32, 4-(1-cyclopropyl-4-(hydroxymethyl)naphthalen-2-yl)-N-ethyl-6-methyl-7-oxo-6,7-dihydro-1H-pyrrolo[2,3-c]pyridin-2-carboxamide]
10 to 100 nM	100 to 1000 nM	CCNC(=O)c1cc2c(-c3cn(C)nc3C(C)c3ccccc3)cn(C)c(=O)c2[nH]1 (centres unmarked) [Compound A33, N-ethyl-6-methyl-4-(1-methyl-3-(1-phenylethyl)-1H-pyrazol-4-yl)-7-oxo-6,7-dihydro-1H-pyrrolo[2,3c]pyridin-2-carboxamide]
